Data set [1] can be described thus: Mouse liver microsomal stability, single 30 min time point. It counts as in vitro ADME. To be noted: primary mouse liver microsomes (MLM). On the technique in general: Microsomes from liver hold many membrane-bound enzymes, among them those of drug oxidation.
The nature of data set [2]: In vivo mouse pharmacokinetics. To be noted: male, CD-1, mouse, plasma.
Data set [3] in a line: Intrinsic clearance in mouse liver microsomes. It counts as in vitro ADME.
The nature of data set [4]: Metabolite ID study of 1i in mouse hepatocytes. It counts as in vitro ADME. As to conditions: 1i incubated 4 h in mouse primary hepatocytes; relative quantity by UV.
The nature of data set [5]: Intrinsic clearance in mouse liver S9 fraction. The class given is in vitro ADME. To be noted: male, CD-1, mouse.
Data set [6] in a line: Intrinsic clearance in primary mouse hepatocytes. It counts as in vitro ADME. To be noted: male, CD-1, mouse, cryopreserved primary hepatocytes.
Another data set relates to mice. Nature of the data set: Dose ranging study of EA tolerability in mice. The class given is in vivo, mouse. As to conditions: i.p.

Structures are written as SMILES.

With `CCC(=O)Nc1cc(Nc2cc(NC3CC3)n3ncc(C#N)c3n2)ccc1C` [Compound 1a], the “parent compound remaining after 30 min” value in data set [1] was 40%.
Consider `CCC(=O)Nc1cc(Nc2cc(NC3CC3)n3ncc(C#N)c3n2)ccc1N1CCC[C@H](NC)C1` [Compound 1i, (S)-N-(5-((3-Cyano-7-(cyclopropylamino)pyrazolo[1,5-a]pyrimidin-5-yl)amino)-2-(3-(methylamino)piperidin-1-yl)phenyl)propionamide], for which, in data set [2] (ip, 10 mg/kg), the AUC(0-t) (in general, exposure summed from dosing to a finite time, without extrapolation to infinity) worked out at 7010 ng·h/mL; the concentration peaked (Cmax) at 4700 ng/mL; the bioavailability (commonly the share of a dose that reaches the circulation, judged against a reference dose that is usually intravenous) turned out to be 100%. Further, in data set [2] (iv, 1 mg/kg), the Cmax (usually the peak of the concentration-time curve) is 1100 ng/mL and the clearance (commonly a measure of how efficiently the substance is removed, as volume per time) was 36 mL/min/kg. The CLint scaled – broadly, the rate of metabolic loss divided by the concentration – in data set [3] is less than 24 mL/min/kg. Also, the “rel. (%) of peak (metabolite or parent)” value in data set [4] was determined as 53%.
`CN[C@H]1CCCN(c2ccc(Nc3cc(NC4CC4)n4ncc(C#N)c4n3)cc2NC(C)=O)C1` [Compound 2c, (S)-N-(5-((3-Cyano-7-(cyclopropylamino)pyrazolo[1,5-a]pyrimidin-5-yl)amino)-2-(3-(methylamino)piperidin-1-yl)phenyl)acetamide]: in data set [2] (ip, 10 mg/kg), the AUC(0-t) came to 770 ng·h/mL, the Cmax is 670 ng/mL, the bioavailability was 40% and the half-life (usually the time in which the quantity being followed falls by half) is 1.5 h. In data set [2] (iv, 1 mg/kg), the AUC(0-t) is 200 ng·h/mL; the Cmax was found to be 350 ng/mL; the Vd (usually a proportionality between amount in the body and measured concentration, not a real space) was 5.07 L/kg; the clearance amounted to 84 mL/min/kg. For the same compound, the half-life in data set [2] (iv, 1 mg/kg) was 1.8 h. Besides, the CLint scaled in data set [3] was less than 24 mL/min/kg. The same compound came in with a CLint scaled in data set [5] of 1 mL/min/kg. In data set [6], this compound returned a CLint scaled at 1 μM of 132 mL/min/kg.
In data set [2] (ip, 10 mg/kg), `CN[C@H]1CCN(c2ccc(Nc3cc(NC4CC4)n4ncc(C#N)c4n3)cc2NC(C)=O)C1` [Compound 2e, (S)-N-(5-((3-Cyano-7-(cyclopropylamino)pyrazolo[1,5-a]pyrimidin-5-yl)amino)-2-(3-(methylamino)pyrrolidin-1-yl)phenyl)acetamide] gave an AUC(0-t) of 1300 ng·h/mL, a Cmax of 1500 ng/mL, a bioavailability of 53% and a half-life of 1.4 h. In data set [2] (iv, 1 mg/kg), the AUC(0-t) was found to be 250 ng·h/mL, the highest level (Cmax) was 810 ng/mL, the Vd was found to be 2.67 L/kg and the clearance is 69 mL/min/kg. For the same compound, in data set [2] (iv, 1 mg/kg), the half-life is 1.2 h. In addition, the CLint scaled in data set [3] worked out at 27 mL/min/kg. Besides, the CLint scaled in data set [5] is 4 mL/min/kg. Besides, the CLint scaled at 1 μM in data set [6] was determined as 69 mL/min/kg.
Regarding `C=C(CC)C(=O)c1ccc(OCC(=O)O)c(Cl)c1Cl` [EA, ethacrynic acid], the “doses that resulted in clinical symptoms including death” value with mice is given as not below 100 mg/kg.

Values taken from PMC10600890 (ACS Omega, 2023).
